Laboratory results as given in ChEMBL document CHEMBL4765365, “Design, synthesis and antitumour evaluation of pyrrolo[1,2-f]-phenanthridine and dibenzo[f,h]pyrrolo[1,2-b]isoquinoline derivatives” (Eur J Med Chem, 2020).

How the values were obtained:
HCT-116 [1] = assay: Induction of cell cycle arrest in human HCT-116 cells assessed as S phase at 0.375 uM incubated for 24 hrs by PI staining based flow cytometry analysis (reference value: 21.2 +/- 5.4 %); assay type: functional
NCI-H460 [2] = assay: Induction of apoptosis in human NCI-H460 cells assessed as early apoptotic cells at 3 uM incubated for 48 hrs by annexin V-FITC and PI staining based flow cytometry analysis (reference value: 2 %); assay type: functional
NCI-H460 [3] = assay: Induction of cell cycle arrest in human NCI-H460 cells assessed as G0 phase at 1.5 uM incubated for 36 hrs by PI staining based flow cytometry analysis (reference value: 2.8 +/- 0.7 %); assay type: functional
NCI-H460 [4] = assay: Antitumor activity against human NCI-H460 cells xenografted in nude mouse assessed as reduction in tumor size at 30 mg/kg, iv administered for 5 days and repeated cycle for 2 days interval and measured on day 24; assay type: functional; conditions: 576 h, time 24 day, read-out: TGI
HCT-116 [5] = assay: Induction of cell cycle arrest in human HCT-116 cells assessed as G2/M phase at 0.375 uM incubated for 24 hrs by PI staining based flow cytometry analysis (reference value: 9.3 +/- 0.8 %); assay type: functional
HCT-116 [6] = assay: Induction of cell cycle arrest in human HCT-116 cells assessed as S phase at 0.75 uM measured at 0 hrs by PI staining based flow cytometry analysis (reference value: 12.4 +/- 6.2 %); assay type: functional
NCI-H460 [7] = assay: Induction of cell cycle arrest in human NCI-H460 cells assessed as G1 phase at 0.75 uM measured at 0 hrs by PI staining based flow cytometry analysis (reference value: 53.4 +/- 4.8 %); assay type: functional
CEM-VLB = assay: Cytotoxicity against human CEM-VLB cells assessed as reduction in cell viability incubated for 72 hrs by XTT assay; assay type: functional, cell-based
HCT-116 [8] = assay: Induction of cell cycle arrest in human HCT-116 cells assessed as G1 phase at 0.75 uM incubated for 12 hrs by PI staining based flow cytometry analysis (reference value: 53.6 +/- 4.5 %); assay type: functional
NCI-H460 [9] = assay: Induction of cell cycle arrest in human NCI-H460 cells assessed as S phase at 3 uM measured at 0 hrs by PI staining based flow cytometry analysis (reference value: 12.2 +/- 2.8 %); assay type: functional
NCI-H460 [10] = assay: Induction of apoptosis in human NCI-H460 cells assessed as late apoptotic cells at 1.5 uM incubated for 48 hrs by annexin V-FITC and PI staining based flow cytometry analysis (reference value: 7.3 %); assay type: functional
HCT-116 [11] = assay: Induction of cell cycle arrest in human HCT-116 cells assessed as G2/M phase at 1.5 uM measured at 0 hrs by PI staining based flow cytometry analysis (reference value: 28.9 +/- 1.4 %); assay type: functional
NCI-H460 [12] = assay: Induction of cell cycle arrest in human NCI-H460 cells assessed as S phase at 0.75 uM incubated for 12 hrs by PI staining based flow cytometry analysis (reference value: 11.2 +/- 4.3 %); assay type: functional
NCI-H460 [13] = assay: Induction of apoptosis in human NCI-H460 cells assessed as necrotic cells at 3 uM incubated for 48 hrs by annexin V-FITC and PI staining based flow cytometry analysis (reference value: 0.7 %); assay type: functional
HCT-116 [14] = assay: Induction of cell cycle arrest in human HCT-116 cells assessed as S phase at 1.5 uM incubated for 12 hrs by PI staining based flow cytometry analysis (reference value: 15.5 +/- 0.2 %); assay type: functional
HCT-116 [15] = assay: Induction of cell cycle arrest in human HCT-116 cells assessed as G2/M phase at 0.75 uM incubated for 24 hrs by PI staining based flow cytometry analysis (reference value: 9.3 +/- 0.8 %); assay type: functional
NCI-H460 [16] = assay: Induction of cell cycle arrest in human NCI-H460 cells assessed as G0 phase at 1.5 uM incubated for 12 hrs by PI staining based flow cytometry analysis (reference value: 2.9 +/- 2.4 %); assay type: functional
NCI-H460 [17] = assay: Induction of cell cycle arrest in human NCI-H460 cells assessed as S phase at 0.75 uM measured at 0 hrs by PI staining based flow cytometry analysis (reference value: 12.2 +/- 2.8 %); assay type: functional
HCT-116 [18] = assay: Induction of cell cycle arrest in human HCT-116 cells assessed as S phase at 0.75 uM incubated for 12 hrs by PI staining based flow cytometry analysis (reference value: 15.5 +/- 0.2 %); assay type: functional
HCT-116 [19] = assay: Induction of cell cycle arrest in human HCT-116 cells assessed as G1 phase at 0.375 uM incubated for 12 hrs by PI staining based flow cytometry analysis (reference value: 53.6 +/- 4.5 %); assay type: functional
HCT-116 [20] = assay: Induction of cell cycle arrest in human HCT-116 cells assessed as G2/M phase at 0.75 uM incubated for 36 hrs by PI staining based flow cytometry analysis (reference value: 23.6 +/- 1 %); assay type: functional
HCT-116 [21] = assay: Induction of cell cycle arrest in human HCT-116 cells assessed as G1 phase at 1.5 uM incubated for 36 hrs by PI staining based flow cytometry analysis (reference value: 57.4 +/- 1.3 %); assay type: functional
NCI-H460 [22] = assay: Induction of cell cycle arrest in human NCI-H460 cells assessed as G2/M phase at 0.75 uM incubated for 24 hrs by PI staining based flow cytometry analysis (reference value: 21 +/- 6.7 %); assay type: functional
HCT-116 [23] = assay: Induction of cell cycle arrest in human HCT-116 cells assessed as S phase at 1.5 uM measured at 0 hrs by PI staining based flow cytometry analysis (reference value: 12.4 +/- 6.2 %); assay type: functional
HCT-116 [24] = assay: Induction of cell cycle arrest in human HCT-116 cells assessed as G0 phase at 1.5 uM incubated for 36 hrs by PI staining based flow cytometry analysis (reference value: 2.5 +/- 0.8 %); assay type: functional
HCT-116 [25] = assay: Induction of cell cycle arrest in human HCT-116 cells assessed as G2/M phase at 1.5 uM incubated for 24 hrs by PI staining based flow cytometry analysis (reference value: 9.3 +/- 0.8 %); assay type: functional
HCT-116 [26] = assay: Induction of cell cycle arrest in human HCT-116 cells assessed as G2/M phase at 0.75 uM incubated for 12 hrs by PI staining based flow cytometry analysis (reference value: 21.7 +/- 1.9 %); assay type: functional
NCI-H460 [27] = assay: Induction of apoptosis in human NCI-H460 cells assessed as early apoptotic cells at 6 uM incubated for 48 hrs by annexin V-FITC and PI staining based flow cytometry analysis (reference value: 2 %); assay type: functional
NCI-H460 [28] = assay: Induction of cell cycle arrest in human NCI-H460 cells assessed as G0 phase at 0.75 uM incubated for 12 hrs by PI staining based flow cytometry analysis (reference value: 2.9 +/- 2.4 %); assay type: functional
HCT-116 [29] = assay: Induction of cell cycle arrest in human HCT-116 cells assessed as G0 phase at 1.5 uM incubated for 24 hrs by PI staining based flow cytometry analysis (reference value: 12.5 +/- 5.4 %); assay type: functional
NCI-H460 [30] = assay: Induction of cell cycle arrest in human NCI-H460 cells assessed as G0 phase at 3 uM incubated for 12 hrs by PI staining based flow cytometry analysis (reference value: 2.9 +/- 2.4 %); assay type: functional

Compound `OCc1cn2c3ccccc3c3ccccc3c2c1CO` has an Activity (HCT-116 [1]) of 17.2%, an Activity (NCI-H460 [2]) of 10.8% and an Activity (NCI-H460 [3]) of 3.3%. It also gave an inhibition in vivo at 30 mg/kg (NCI-H460 [4]) of 66%, an Activity (HCT-116 [5]) of 17.8% and an Activity (HCT-116 [6]) of 12.6%. The Activity (NCI-H460 [7]) was 54.9%, the IC50 (CEM-VLB) was 0.38 µM and the Activity (HCT-116 [8]) was 51.6%. The Activity (NCI-H460 [9]) was 12.2%, the Activity (NCI-H460 [10]) was 13.7% and the Activity (HCT-116 [11]) was 28.5%. It also gave an Activity (NCI-H460 [12]) of 14.2%, an Activity (NCI-H460 [13]) of 1.6% and an Activity (HCT-116 [14]) of 19.9%. It also gave an Activity (HCT-116 [15]) of 25.6%, an Activity (NCI-H460 [16]) of 2.6% and an Activity (NCI-H460 [17]) of 12.6%. The Activity (HCT-116 [18]) was 16.9%, the Activity (HCT-116 [19]) was 51.6% and the Activity (HCT-116 [20]) was 17.4%. It also gave an Activity (HCT-116 [21]) of 52.3%, an Activity (NCI-H460 [22]) of 24.1% and an Activity (HCT-116 [23]) of 12.6%. It also gave an Activity (HCT-116 [24]) of 18.2%, an Activity (HCT-116 [25]) of 30.3% and an Activity (HCT-116 [26]) of 23.2%. The Activity (NCI-H460 [27]) was 29.2%, the Activity (NCI-H460 [28]) was 3.7% and the Activity (HCT-116 [29]) was 6.4%. The Activity (NCI-H460 [30]) was 2.5%.
